Earlier results as cited in patent US20100303937A1, “NOVEL COMPOSITION TO INCREASE TESTOSTERONE LEVELS” (priority 2009, published 2010).

Conditions: humans; prior art U.S. Pat. No. 5,880,117

For `C[C@]12CC[C@H]3[C@@H](CCC4=C[C@@H](O)CC[C@@]43C)[C@@H]1CC[C@@H]2O` [4-androstene-3β, 17β-diol], the “time within which concentration peaks after administration” value is listed as ≤ 90 min.
